One assay has as its system GBM12. The experiment in a line: Cignal 45-Pathway Reporter Array. The following applies: tofacitinib 1 μM, 24 hours. It is filed as cell-based, human.
The test system of another assay is DOCK7 and BIN3. The experiment in a line: Co-immunoprecipitation of BIN3 and DOCK7. It is filed as cell-based, human. To be noted: 24 hours. The procedure:
Cells were treated with 50 ng/ml EGF for 24 hours, BIN3 (sc-514396AC, Santa Cruz Biotechnology) or mouse IgG antibodies were incubated with whole cell lysates overnight at 4° C., and the mixtures were then incubated with 40 μl protein A/G slurry beads (Sigma) for 2 hours at 4° C. Beads were washed three times with lysis buffer, and immunoprecipitates were boiled in loading buffer for 5 min, subjected to SDS-PAGE followed by Coomassie stain. Bands were cut from the gel and submitted for Mass Spectrometry Facility, UTSW, Dallas. To identify BIN3 and DOCK7 complexes in PDXs upon EGF treatment, cell lysates were immunoprecipitated with DOCK7 antibody or BIN3 antibody, and analyzed by Western blot using BIN3 antibody.
Referring to FIG. 9A-S, BIN3 reduces invasion by interacting with DOCK7. Heat map of spectral counts of the top BIN3 interacting proteins identified by mass spectrometry in GBM12 treated with EGF (50 ng/ml) is shown in FIG. 9A. Western blot analysis of immunoprecipitated extracts from EGF-treated GBM12, GBM6, and GBM26 is illustrated in FIG. 9B. Cell lysates from cells treated with EGF (50 ng/ml) or control vehicle for 24 hours were immunoprecipitated by DOCK7 antibody, followed by Western blot for BIN3. Western blot analysis of BIN3 antibody immunoprecipitated extracts from GBM12, GBM6, and GBM26 24 hours after EGF or vehicle treatment is illustrated in FIG. 9C. […]

The next assay concerns RhoA. The experiment in a line: RhoA pull down assay (RhoA-GTP). It is filed as cell-based, human. To be noted: 24 hours, GBM12 and GBM6. The procedure:
The amount of GTP-bound RhoA and Cdc42 were measured using RhoA and Cdc42 pull down assay kit (Cell Signaling) according to the protocol provided by the manufacturer. Briefly, cell lysates were incubated with either glutathione S-transferase (GST)-Rhotekin-RBD or GST-PAK-PBD beads 4° C. for 1 hour to pull down GTP-bound RhoA or Cdc42. Beads were washed four times in washing buffer and re-suspended in lysis buffer. RhoA-GTP and Cdc42-GTP were detected by Western blot using RhoA and Cdc42 antibodies.

For assay [1], the system named is GBM12 mouse intracranial tumors. The experiment in a line: Exogenous EGF infusion into GBM12 intracranial tumors. It is filed as in vivo, mice. The following applies: EGF infused into lateral ventricles by miniosmotic pump. The procedure: 4 to 6 weeks old female athymic nude mice were purchased from Charles River Laboratories. Mayo PDXs were injected into the right corpus striatum of the brains of 6-8 week-old nude mice using a stereotactic frame. […] Kaplan-Maier survival curves were calculated using GraphPad Prism 7.0 software. Alzet Osmotic pumps were installed for brain delivery of EGF or vehicle in tumor bearing mice. To monitor the mice with orthotropic xenografts, MRI was performed at the Mouse MRI Core, Advanced Imaging Research Center, at UT Southwestern.
Next, the impact of EGFR ligand on GBM invasion was examined in an orthotopic mouse model. To induce ligand activation of EGFR in vivo, ligand to EGFR-expressing tumors were provided by generating an autocrine loop or by exogenous infusion of ligand. In the autocrine loop experiment, ligand for EGFRwt is provided by the same cells that express the EGFR. Autocrine loops involving EGFR and its ligands are well described in GBM (Ramnarain et al. (2006) Cancer Res. 66: 867-874; Tang et al. (1997) J. Neurooncol. 35: 303-314). […]
Western blot analysis of TGFα, pEGFR, EGFR, and BIN3 in PDXs stably transfected with empty (GBM12V, GBM6V, GBM22V) or TGFα expressing vector (GBM12TGFα, GBM6TGFα, GBM22TGFα) is shown in FIG. 12A. […] Quantitative analysis of HNA positive cells in mouse tumor tissue sections. […]

With `C[C@@H]1CCN(C(=O)CC#N)C[C@@H]1N(C)c1ncnc2[nH]ccc12` [tofacitinib], the transcription factor activity entry with GBM12 is “upregulates multiple transcription factors”.
Take “EGF: Recombinant human EGF (AF-100) from Peprotech; EGFR ligand”: the “physical association between DOCK7 and BIN3” value with DOCK7 and BIN3 (EGF 50 ng/ml, GBM12, GBM6, GBM26) is recorded as “significantly induced a physical association”. Also, in the assay on RhoA (EGF 50 ng/ml), the RhoA activity result is on record as “decreases the activity”. Also, in assay [1], the “tumor size (MRI)” value is reported as “smaller tumors”. Further, the tumor invasiveness entry in assay [1] (H&E, SMI-31, HNA staining) was “noninvasive”.
For the molecule HGF: the ligand for Met, the “association between BIN3 and DOCK7” value in the assay on DOCK7 and BIN3 (HGF 20 ng/ml, GBM12 and GBM6) was “not detected”. Besides, in the assay with RhoA (HGF), the RhoA activity result is given as “increase in RhoA activity”.

(Values after patent US20230075368A1, “IDENTIFICATION OF AN EGFR-BIN3 PATHWAY THAT ACTIVELY SUPPRESSES INVASION AND REDUCES TUMOR SIZE IN GLIOBLASTOMA” (The United States Govemment as represented by the …, priority 2020, published 2023).)
